One may read the IC50 as the concentration that inhibits the measured activity by half.

The target in one assay is full length MPS1 (Homo sapiens (Human), UniProt P33981). Put plainly: Measurement of inhibition of MPS1 kinase (Caliper EZ reader, fluorescent labelled peptide H236). The assay is classed as biochemical.
full length MPS1, sequence (P33981 whole entry): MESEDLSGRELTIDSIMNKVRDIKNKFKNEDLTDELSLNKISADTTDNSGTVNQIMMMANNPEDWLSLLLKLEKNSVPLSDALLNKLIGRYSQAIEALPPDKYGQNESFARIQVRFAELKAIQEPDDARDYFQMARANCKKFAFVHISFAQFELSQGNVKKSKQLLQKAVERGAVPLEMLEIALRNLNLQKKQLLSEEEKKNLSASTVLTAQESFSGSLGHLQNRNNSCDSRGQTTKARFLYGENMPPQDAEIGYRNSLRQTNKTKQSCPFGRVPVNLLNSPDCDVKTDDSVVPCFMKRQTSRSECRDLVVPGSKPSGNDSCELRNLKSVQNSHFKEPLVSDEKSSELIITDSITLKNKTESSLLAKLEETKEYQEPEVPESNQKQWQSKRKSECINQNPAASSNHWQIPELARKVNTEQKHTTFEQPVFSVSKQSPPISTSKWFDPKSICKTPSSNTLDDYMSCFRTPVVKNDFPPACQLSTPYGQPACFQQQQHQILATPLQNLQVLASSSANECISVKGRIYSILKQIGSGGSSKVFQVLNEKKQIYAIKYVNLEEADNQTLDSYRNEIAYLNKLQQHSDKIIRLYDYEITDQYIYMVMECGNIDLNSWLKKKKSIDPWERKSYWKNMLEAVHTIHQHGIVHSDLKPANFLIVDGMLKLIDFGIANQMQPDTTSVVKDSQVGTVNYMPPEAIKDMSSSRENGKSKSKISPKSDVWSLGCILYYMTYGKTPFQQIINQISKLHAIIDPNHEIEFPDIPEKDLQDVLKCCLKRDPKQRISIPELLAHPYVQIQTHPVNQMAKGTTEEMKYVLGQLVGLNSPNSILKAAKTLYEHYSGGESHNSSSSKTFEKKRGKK
Conditions: not given
The procedure:
The reaction was carried out for 60 min at room temperature and stopped by the addition of buffer (10 μl) containing 20 mM EDTA, 0.05% (v/v) Brij-35, in 0.1M HEPES-buffered saline (Free acid, Sigma, UK). The plate was read on a Caliper EZ reader II (Caliper Life Sciences).
The reader provides a Software package (‘Reviewer’) which converts the peak heights into % conversion by measuring both product and substrate peak and also allows selection of control well which represent 0% and 100% inhibition respectively. The % inhibition of the compounds is calculated relative to the means of selected control wells. IC50s are determined by testing the compounds at a range of concentrations from 0.25 nM-100 μM. The % inhibitions at each concentration are then fitted to a 4 parameter logistic fit: y=(a+((b−a)/(1+((c/x^d)))) where a=asym min, b=asym max, c=IC50 and d=hill coefficient
Take `COCCn1cc(-c2ccc3cnc(Nc4ccc(-c5cnc(CO)n5C)cc4OC)cc3c2)cn1` [Example 25, (5-(3-Methoxy-4-((6-(1-(2-methoxyethyl)-1H-pyrazol-4-yl)isoquinolin-3-yl)amino)phenyl)-1-methyl-1H-imidazol-2-yl)methanol]: 28 nM corresponded to half-maximal inhibition (IC50).

Staying with this assay, now noted: full length MPS1 12.5 nM or 3 nM, peptide H236 5 μM, ATP 10 μM, 60 min at room temperature.
With `COCCn1cc(-c2ccc3cnc(Nc4ccc(-c5cnc(C)n5C)cc4OC)cc3c2)cn1` [Example 14, N-(4-(1,2-dimethyl-1H-imidazol-5-yl)-2-methoxyphenyl)-6-(1-(2-methoxyethyl)-1H-pyrazol-4-yl)isoquinolin-3-amine], the IC50 is 20 nM.
The same measure, in the same setting: then `COc1cc(-c2cnn(C)c2)ccc1Nc1cc2nc(-c3cnn(CC(C)(C)O)c3)ccc2cn1` [Example 101, 1-(4-(7-(2-Methoxy-4-(1-methyl-1H-pyrazol-4-yl)phenylamino)-1,6-naphthyridin-2-yl)-1H-pyrazol-1-yl)-2-methylpropan-2-ol], with 3 nM; and `COc1cc(-c2cnc(C)n2C)ccc1Nc1cc2cc(-c3cnn(CC(F)(F)F)c3)ccc2cn1` [Example 44, N-(4-(1,2-Dimethyl-1H-imidazol-5-yl)-2-methoxyphenyl)-6-(1-(2,2,2-trifluoroethyl)-1H-pyrazol-4-yl)isoquinolin-3-amine], with 4 nM; and `COc1cc(C(=O)NCCO)ccc1Nc1cc2cc(-c3cnn(CC(C)(C)O)c3)ccc2cn1` [Example 61, 4-((6-(1-(2-Hydroxy-2-methylpropyl)-1H-pyrazol-4-yl)isoquinolin-3-yl)amino)-N-(2-hydroxyethyl)-3-methoxybenzamide], with 2 nM.
Same read-out and setting: then `COCCn1c(-c2ccc(Nc3cc4cc(-c5cnn(CC(C)(C)O)c5)ccc4cn3)c(OC)c2)cnc1C` [Example 35, 1-(4-(3-((2-Methoxy-4-(1-(2-methoxyethyl)-2-methyl-1H-imidazol-5-yl)phenyl)amino)-isoquinolin-6-yl)-1H-pyrazol-1-yl)-2-methylpropan-2-ol], with 3 nM.
`Cc1ncc(-c2ccc(Nc3cc4cc(-c5cnn(CC(C)(C)O)c5)ccc4cn3)cc2)n1C` [Example 47, 1-(4-(3-(4-(1,2-Dimethyl-1H-imidazol-5-yl)phenylamino)isoquinolin-6-yl)-1H-pyrazol-1-yl)-2-methylpropan-2-ol] displayed an IC50 of 6 nM.
With `COCc1c(-c2ccc(Nc3cc4cc(-c5cnn(CC(C)(C)O)c5)ccc4cn3)c(OC)c2)cnn1C` [Example 51, 1-(4-(3-(2-Methoxy-4-(5-(methoxymethyl)-1-methyl-1H-pyrazol-4-yl)phenylamino)isoquinolin-6-yl)-1H-pyrazol-1-yl)-2-methylpropan-2-ol], the IC50 turned out to be 4 nM.
The same measure, in the same setting: then `COc1cc(-c2cnc(C)n2C)ccc1Nc1cc2cc(-c3ccc(N(C)C)nc3)ccc2cn1` [Example 8, N-(4-(1,2 dimethyl-1H-imidazol-5-yl)-2-methoxyphenyl)-6-(6-(dimethylamino)pyridin-3-yl)isoquinolin-3-amine], with 108 nM; and `COCCNC(=O)c1ccc(Nc2cc3cc(-c4cnn(CC(C)(C)O)c4)ccc3cn2)c(OC)c1` [Example 62, 4-((6-(1-(2-Hydroxy-2-methylpropyl)-1H-pyrazol-4-yl)isoquinolin-3-yl)amino)-3-methoxy-N-(2-methoxyethyl)benzamide], with 3 nM.
`COc1cc(-c2cnc(C)n2C)ccc1Nc1cc2cc(-c3cnn(CC4COC4)c3)ccc2cn1` [Example 37, N-(4-(1,2-Dimethyl-1H-imidazol-5-yl)-2-methoxyphenyl)-6-(1-(oxetan-3-ylmethyl)-1H-pyrazol-4-yl)isoquinolin-3-amine] registered an IC50 of 5 nM.
The same measure, in the same setting: the value for `COc1cc(-c2cnc(C)n2C)ccc1Nc1cc2cc(C3CC3)ccc2cn1` [Example 18, 6-Cyclopropyl-N-(4-(1,2-dimethyl-1H-imidazol-5-yl)-2-methoxyphenyl)isoquinolin-3-amine] was 144 nM; that for `COc1cc(-c2cnc(C)n2C)ccc1Nc1cc2cc(C(=O)N(C)C)ccc2cn1` [Example 89, 3-((4-(1,2-Dimethyl-1H-imidazol-5-yl)-2-methoxyphenyl)amino)-N,N-dimethylisoquinoline-6-carboxamideone] was 472 nM.
Still for that read-out and setting: the value for `CCC(O)Cn1cc(-c2ccc3cnc(Nc4ccc(C(=O)N5CC(OC)C5)cc4OC)cc3c2)cn1` (racemic) [Example 71, (4-((6-(1-(2-Hydroxybutyl)-1H-pyrazol-4-yl)isoquinolin-3-yl)amino)-3-methoxyphenyl)(3-methoxyazetidin-1-yl)methanone] was 4 nM; that for `COc1cc(-c2cnn(C)c2CO)ccc1Nc1cc2cc(-c3cnn(CC(C)(C)O)c3)ccc2cn1` [Example 36, 1-(4-(3-((4-(5-(Hydroxymethyl)-1-methyl-1H-pyrazol-4-yl)-2-methoxyphenyl)amino)-isoquinolin-6-yl)-1H-pyrazol-1-yl)-2-methylpropan-2-ol] was 3 nM.
The same measure, in the same setting: then `COc1cc(C(=O)N2CC(F)(F)C2)ccc1Nc1cc2cc(-c3cnn(CC(C)(C)O)c3)ccc2cn1` [Example 93, (3,3-Difluoroazetidin-1-yl)(4-(6-(1-(2-hydroxy-2-methylpropyl)-1H-pyrazol-4-yl)isoquinolin-3-ylamino)-3-methoxyphenyl)methanone], with 5 nM; and `COc1cc(-c2cnc(C)n2C)ccc1Nc1cc2cc(-c3cnn(CC4CCC4)c3)ccc2cn1` [Example 28, 6-(1-(Cyclobutylmethyl)-1H-pyrazol-4-yl)-N-(4-(1,2-dimethyl-1H-imidazol-5-yl)-2-methoxyphenyl)isoquinolin-3-amine], with 3 nM; and `Cc1ncc(-c2ccc(Nc3cc4cc(-c5cnn(C)c5)ccc4cn3)c(Cl)c2)n1C` [Example 22, N-(2-chloro-4-(1,2-dimethyl-1H-imidazol-5-yl)phenyl)-6-(1-methyl-1H-pyrazol-4-yl)isoquinolin-3-amine], with 4 nM.
`COc1cc(-c2cnc(C)n2CC(C)(C)O)ccc1Nc1cc2cc(-c3cnn(CC(C)(C)O)c3)ccc2cn1` [Example 69, 1-(5-(4-((6-(1-(2-Hydroxy-2-methylpropyl)-1H-pyrazol-4-yl)isoquinolin-3-yl)amino)-3-methoxy-phenyl)-2-methyl-1H-imidazol-1-yl)-2-methylpropan-2-ol] showed an IC50 of 2 nM.
Still for that read-out and setting: the value for `COc1cc(-c2cnc(C)n2C)ccc1Nc1cc2cc(-c3cncs3)ccc2cn1` [Example 9, N-(4-(1,2-dimethyl-1H-imidazol-5-yl)-2-methoxyphenyl)-6-(thiazol-5-yl)isoquinolin-3-amine] was 4 nM; that for `COc1cc(C(=O)N2CC(OC)C2)ccc1Nc1cc2cc(-c3cnn(C)c3)ccc2cn1` [Example 24, (3-Methoxy-4-((6-(1-methyl-1H-pyrazol-4-yl)isoquinolin-3-yl)amino)phenyl)(3-methoxyazetidin-1-yl)methanone] was 2 nM.
Still for that read-out and setting: the value for `COc1cc(-c2cnc(C)n2C)cnc1Nc1cc2cc(-c3cnn(CC(C)(C)O)c3)ccc2cn1` [Example 57, 1-(4-(3-((5-(1,2-Dimethyl-1H-imidazol-5-yl)-3-methoxypyridin-2-yl)amino)isoquinolin-6-yl)-1H-pyrazol-1-yl)-2-methylpropan-2-ol] was 3 nM; that for `COc1cc(C(=O)N2CC(OC)C2)ccc1Nc1cc2cc(-c3cnn(CC(C)(C)O)c3)ccc2cn1` [Example 46, (4-(6-(1-(2-Hydroxy-2-methylpropyl)-1H-pyrazol-4-yl)isoquinolin-3-ylamino)-3-methoxy-phenyl)(3-methoxyazetidin-1-yl)methanone] was 2 nM.

These data come from patent US9334286B2, “Pharmacologically active compounds” (Cancer Research Technology Limited, priority 2012, dated 2016).
